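96-well plates; 48 h exposure; 5 concentrations. Endpoints by linear interpolation between flanking doses. Not reached: highest tested concentration assigned. At the GI50, growth is halved.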 The source made the active and inactive calls. Cut-off read from the data, not from the text of the source: active = GI50 up to about 1.1 µM and inactive = higher.
Tests used:
Experiment in all cases: NCI tumour cell line growth inhibition, 48 h
A549 = test system: A549
ACHN = test system: ACHN
COLO 205 = test system: COLO 205
DMS-273 = test system: DMS-273
HOP-62 = test system: HOP-62
IGROV-1 = test system: IGROV-1
K562 = test system: K562
KM12 = test system: KM12
M14 = test system: M14
MOLT-4 = test system: MOLT-4
Malme-3M = test system: Malme-3M
NCI-H460 = test system: NCI-H460
OVCAR-3 = test system: OVCAR-3
OVCAR-4 = test system: OVCAR-4
SK-MEL-28 = test system: SK-MEL-28
TK-10 = test system: TK-10
UACC-62 = test system: UACC-62

Measured: GI50

CN1OC(CO)CC12C1CC3CC(C1)CC2C3 (configuration not stated)
inactive: A549 > 100 µM | ACHN > 100 µM | COLO 205 > 100 µM | DMS-273 > 100 µM | HOP-62 > 100 µM | IGROV-1 > 100 µM | K562 > 100 µM | KM12 > 100 µM | M14 > 100 µM | MOLT-4 > 100 µM | Malme-3M > 100 µM | NCI-H460 > 100 µM | OVCAR-3 > 100 µM | OVCAR-4 > 100 µM | SK-MEL-28 > 100 µM | TK-10 > 100 µM | UACC-62 > 100 µM

N#Cc1c(-c2ccccc2)cc(-c2ccc(N)cc2)[nH]c1=O
inactive: A549 > 100 µM | ACHN > 100 µM | COLO 205 > 100 µM | DMS-273 > 100 µM | HOP-62 > 100 µM | IGROV-1 > 100 µM | K562 > 100 µM | KM12 > 100 µM | M14 > 100 µM | MOLT-4 > 100 µM | Malme-3M > 100 µM | NCI-H460 > 100 µM | OVCAR-3 > 100 µM | OVCAR-4 > 100 µM | SK-MEL-28 > 100 µM | TK-10 > 100 µM | UACC-62 > 100 µM

C=CCN1C(=O)C/C(=C2/CCC(=O)N2CC=C)C1=O
inactive: A549 > 100 µM | ACHN > 100 µM | COLO 205 > 100 µM | DMS-273 > 100 µM | HOP-62 88.7 µM | IGROV-1 > 100 µM | K562 > 100 µM | KM12 > 100 µM | M14 > 100 µM | MOLT-4 > 100 µM | Malme-3M > 100 µM | NCI-H460 > 100 µM | OVCAR-3 > 100 µM | OVCAR-4 > 100 µM | SK-MEL-28 > 100 µM | TK-10 > 100 µM | UACC-62 > 100 µM

O=C(O)CCc1nn2c(nc1=O)sc1ccc3ccccc3c12
inactive: A549 > 100 µM | ACHN > 100 µM | COLO 205 > 100 µM | DMS-273 > 100 µM | HOP-62 > 100 µM | IGROV-1 > 100 µM | K562 > 100 µM | M14 > 100 µM | MOLT-4 > 100 µM | Malme-3M > 100 µM | NCI-H460 > 100 µM | OVCAR-3 > 100 µM | OVCAR-4 > 100 µM | SK-MEL-28 > 100 µM | TK-10 > 100 µM | UACC-62 > 100 µM

O=C(CCC(=O)Nc1ccc(Cl)cc1)CC(=O)c1ccc(F)cc1
inactive: A549 > 100 µM | ACHN > 100 µM | COLO 205 > 100 µM | DMS-273 > 100 µM | HOP-62 > 100 µM | IGROV-1 > 100 µM | K562 > 100 µM | KM12 > 100 µM | M14 > 100 µM | MOLT-4 > 100 µM | Malme-3M > 100 µM | NCI-H460 > 100 µM | OVCAR-3 > 100 µM | OVCAR-4 > 100 µM | SK-MEL-28 > 100 µM | TK-10 > 100 µM | UACC-62 > 100 µM

O=C(Cc1ccccc1[N+](=O)[O-])C(CO)c1ccccc1[N+](=O)[O-] (configuration not stated)
inactive: A549 72.1 µM | ACHN 38.2 µM | COLO 205 > 100 µM | DMS-273 > 100 µM | HOP-62 > 100 µM | IGROV-1 > 100 µM | K562 71.1 µM | KM12 > 100 µM | M14 > 100 µM | MOLT-4 35.7 µM | Malme-3M 79.4 µM | NCI-H460 96.8 µM | OVCAR-3 66.1 µM | OVCAR-4 96.4 µM | SK-MEL-28 > 100 µM | TK-10 > 100 µM | UACC-62 83 µM

C=CCN(N=O)C(=O)N(CCCCC(NC(C)=O)C(=O)NCc1ccccc1)Cc1ccccc1 (configuration not stated)
inactive: A549 38.5 µM | ACHN 42.9 µM | COLO 205 23.8 µM | DMS-273 41.1 µM | HOP-62 57.9 µM | IGROV-1 > 100 µM | K562 26.9 µM | KM12 31.6 µM | M14 22.6 µM | MOLT-4 13.8 µM | Malme-3M 20.2 µM | NCI-H460 39.2 µM | OVCAR-3 30.3 µM | OVCAR-4 25.9 µM | SK-MEL-28 44.1 µM | TK-10 35.1 µM | UACC-62 34.6 µM

N#Cc1ccc(C(C2C(=O)NC(=O)NC2=O)C2C(=O)NC(=O)NC2=O)cc1
inactive: A549 > 100 µM | ACHN > 100 µM | COLO 205 > 100 µM | DMS-273 > 100 µM | HOP-62 > 100 µM | IGROV-1 > 100 µM | K562 77.1 µM | KM12 > 100 µM | M14 > 100 µM | MOLT-4 > 100 µM | Malme-3M > 100 µM | NCI-H460 > 100 µM | OVCAR-3 > 100 µM | OVCAR-4 > 100 µM | SK-MEL-28 > 100 µM | TK-10 > 100 µM | UACC-62 > 100 µM

O=C1C2=C(SCCS2)C(=O)c2ccccc21
inactive: A549 1.9 µM | ACHN 1.66 µM | COLO 205 1.61 µM | DMS-273 1.81 µM | HOP-62 1.56 µM | IGROV-1 1.77 µM | K562 1.77 µM | KM12 1.77 µM | M14 1.87 µM | MOLT-4 2.23 µM | Malme-3M 1.81 µM | NCI-H460 1.83 µM | OVCAR-3 1.71 µM | OVCAR-4 1.65 µM | SK-MEL-28 1.85 µM | TK-10 1.84 µM | UACC-62 1.65 µM

COc1ccc(C(C#N)Cc2cc(OC)c(OC)c(OC)c2)cc1 (configuration not stated)
inactive: A549 30.6 µM | ACHN 45.8 µM | COLO 205 19.2 µM | DMS-273 7.16 µM | HOP-62 22.3 µM | IGROV-1 31.9 µM | K562 4.99 µM | KM12 24 µM | M14 33.4 µM | MOLT-4 28.2 µM | Malme-3M 43.1 µM | NCI-H460 12.1 µM | OVCAR-3 31.4 µM | OVCAR-4 39.3 µM | SK-MEL-28 54.8 µM | TK-10 37.6 µM | UACC-62 27.8 µM

O=C1NC(=O)C2C(=O)NC(=O)C1C2(c1ccccc1)c1cc[nH]c1 (configuration not stated)
inactive: A549 > 100 µM | ACHN > 100 µM | COLO 205 > 100 µM | DMS-273 > 100 µM | HOP-62 > 100 µM | IGROV-1 > 100 µM | K562 > 100 µM | KM12 > 100 µM | M14 > 100 µM | MOLT-4 > 100 µM | Malme-3M > 100 µM | NCI-H460 > 100 µM | OVCAR-3 > 100 µM | OVCAR-4 > 100 µM | SK-MEL-28 > 100 µM | TK-10 > 100 µM | UACC-62 > 100 µM

CCOC(=O)NC(=O)c1cn(C2OC(COC(=O)CCCCCCCCC(=O)OCC3OC(n4cc(C(=O)NC(=O)OCC)c(=O)[nH]c4=O)C(O)C3O)C(O)C2O)c(=O)[nH]c1=O (configuration not stated)
inactive: A549 > 100 µM | ACHN > 100 µM | DMS-273 > 100 µM | HOP-62 > 100 µM | IGROV-1 > 100 µM | K562 > 100 µM | KM12 > 100 µM | M14 > 100 µM | MOLT-4 > 100 µM | Malme-3M > 100 µM | NCI-H460 > 100 µM | OVCAR-3 > 100 µM | OVCAR-4 > 100 µM | SK-MEL-28 > 100 µM | TK-10 > 100 µM | UACC-62 > 100 µM

— ChEMBL document CHEMBL1201862, “PubChem BioAssay data set” (2004)
